Test [1] concerns Staphylococcus aureus NCTC8325. Nature of the test: Antibacterial spectrum MIC (Table 7). Type of test: cell-based. Summed up: (§1)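 CLSI broth microdilution in Mueller-Hinton broth: compounds were dissolved in DMSO, diluted with sterile water and tested at final 8–512 μg/ml against about 1×10^5 CFU/ml inoculum. After 18 h at 37 °C, the MIC was read and OD600 turbidity was recorded.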

Test [2] has as its system Yersinia enterocolitica ATCC9610. Nature of the test: Antibacterial spectrum MIC (Table 7). Type of test: cell-based. Summed up: as §1
The test system of test [3] is Enterococcus faecalis ATCC29212. Nature of the test: Antibacterial spectrum MIC (Table 7). Type of test: cell-based. Summed up:
as §1

Test [4] deals with Escherichia coli ATCC25922. Nature of the test: Antibacterial spectrum MIC (Table 7). Type of test: cell-based. In short, it runs like this: as §1
For test [5], the system named is Staphylococcus aureus ATCC43300 (MRSA). Kind of test: Antibacterial spectrum MIC (Table 7). Type of test: cell-based. In short, it runs like this: as §1
Test [6] relates to Enterobacter cloacae ATCC13047. Nature of the test: Antibacterial spectrum MIC (Table 7). Type of test: cell-based. In short, it runs like this: as §1
Test [7] relates to Haemophilis influenzae ATCC49766. Nature of the test: Antibacterial spectrum MIC (Table 7). Type of test: cell-based. The note with it: Strepto Haemo supplement. In short, it runs like this: as §1
A further test has as its system Neisseria meningitidis. Kind of test: Antibacterial spectrum MIC (Table 7). Type of test: cell-based. In short, it runs like this:
as §1

In the next test the test system is Candida krusei ATCC6258. Kind of test: MIC with respect to fungi, broth microdilution (Table 8). Type of test: cell-based. The note with it: RPMI1640/MOPS (pH 7.0), 35° C., 24 to 48 hours. As for the experimental part:
(§2) Regarding the respective type strains shown in Tables 7 and 8 below, the MIC measurement was performed using the antibacterial agent solutions of Example 2 in the same manner as described in Section (2) of Example 1, except for the following. The antibacterial agent solutions were prepared by dissolving the EGCG derivatives of Example 2 in 100% DMSO and then diluting the resultant mixtures with sterile distilled water. The respective strains were derived from ATCC or NCTC. As Moraxella catarrhalis and Aspergillus fumigatus, clinical isolates thereof without an acquired resistance mechanism were used. For nutrient-rich bacteria, namely, Streptococcus pneumoniae ATCC49619, Streptococcus pyogenes ATCC19615, Streptococcus agalactiae ATCC13813, Moraxella catarrhalis, and Haemophilis influenzae ATCC49766, Strepto Haemo supplement (Eiken Chemical Co., Ltd.) was added to media for culturing them. The MIC measurement with respect to fungi was carried out by a broth microdilution method using a RPMI1640/MOPS (pH 7.0) medium in accordance with CLSI guidelines. About 2×10^3 cells/ml of fungi were inoculated to the medium. After the culture at 35° C. for 24 to 48 hours, the MIC was determined. Also, regarding the antibacterial agent solution of Comparative Example 2, the MIC was measured in the same manner.
In general terms: Broth dilution looks for growth in wells or tubes with falling amounts of substance.

Test [8] has as its system Candida tropicalis ATCC750. The test is described as above. Type of test: cell-based. The note with it: RPMI1640/MOPS (pH 7.0), 35° C., 24 to 48 hours. As for the experimental part: as §2
A further test concerns Aspergillus fumigatus. The test is described as above. Type of test: cell-based. The note with it: Aspergillus fumigatus clinical isolate; RPMI1640/MOPS (pH 7.0), 35° C., 24 to 48 hours. As for the experimental part:
as §2

The test system of test [9] is Candida albicans ATCC24433. The description is as above. Type of test: cell-based. The note with it: RPMI1640/MOPS (pH 7.0), 35° C., 24 to 48 hours. As for the experimental part: as §2
Test [10] deals with Candida parapsilosis ATCC22019. The test is described as above. Type of test: cell-based. The note with it: RPMI1640/MOPS (pH 7.0), 35° C., 24 to 48 hours. As for the experimental part:
as §2

Test [11] relates to Candida glabrata ATCC90030. Described as above. Type of test: cell-based. The note with it: RPMI1640/MOPS (pH 7.0), 35° C., 24 to 48 hours. As for the experimental part: as §2
Test [12] concerns Cryptococcus neoformans ATCC90112. The description is as above. Type of test: cell-based. The note with it: RPMI1640/MOPS (pH 7.0), 35° C., 24 to 48 hours. As for the experimental part:
as §2

Test [13] has as its system Methicillin-susceptible Staphylococcus aureus (MSSA) NCTC8325. Nature of the test: MIC, broth microdilution (Example 1). Type of test: cell-based. The note with it: MH-broth, 37° C., 18 hours. As for the experimental part: Methicillin-susceptible Staphylococcus aureus (MSSA) NCTC8325 and methicillin-resistant Staphylococcus aureus (MRSA) ATCC43300 were used as bacteria. The bacteria of each type were cultured using Mueller-Hinton Broth (MH-broth, Difco) as a medium. Then, the minimum inhibitory concentration (MIC) of each of the EGCG derivatives was measured by a broth microdilution method in accordance with the Clinical and Laboratory Standards Institute (CLSI) guidelines (hereinafter the same).
First, each of the EGCG derivatives was dissolved in 100% dimethyl sulfoxide (DMSO, Wako Pure Chemical Industries, Ltd.) so that the concentration thereof became 5120 μg/ml. The resultant solution was diluted with DMSO or sterile distilled water so as to prepare two-fold dilution series of antibacterial agent solutions. […] Each of these antibacterial agent solutions was dispensed to wells of a 96-well plate. The concentration of the EGCG derivative in the antibacterial agent solution dispensed to the wells was set to be 10 times as high as the final concentration. On the other hand, the bacteria were cultured in the MH-broth at 37° C. overnight, and the thus-obtained pre-culture solution was diluted with a new MH-broth so that the concentration thereof in the MH-broth became 10^−4 (10^4-fold dilution), thus preparing a bacterial culture solution of about 1×10^5 CFU/ml (CFU: Colony Forming Unit, the number of viable cells). The bacterial culture solution was further added to each well, and the mixture was cultured at 37° C. for 18 hours. The ratio (volume ratio) between the antibacterial agent solution and the bacterial culture solution added to each well was set to 1:9 (the antibacterial agent solution:the bacterial culture solution), and the volume of the mixture of them per well was set to 100 μl in total. The final concentration of the EGCG derivative in the mixture was set to 8 μg/ml to 512 μg/ml, and the number of viable cells in the mixture was set to about 1×10^5 CFU/ml. Then, after the completion of the culture, the MIC was determined. Also, the turbidity (OD600 nm) was measured using a plate reader so as to identify minor differences.
As Comparative Example 1, the same procedures as in Example 1 were performed, except that unsubstituted EGCG was used as an antibacterial agent instead of the EGCG derivatives of Example 1. Furthermore, as a control, the same procedures as in Example 1 were performed, except that sterile distilled water, 100% DMSO, or 50% DMSO was used instead of the antibacterial agent solutions containing the EGCG derivatives.

Test [14] deals with MSSA clinical isolate No. 5. Nature of the test: MIC, broth microdilution (Example 2, Table 6). Type of test: cell-based, Staphylococcus aureus.
For a further test, the system named is MSSA ATCC12600. Kind of test: MIC, broth microdilution (Example 2, Table 6). Type of test: cell-based, Staphylococcus aureus.
Test [15] concerns MSSA clinical isolate No. 3. Kind of test: MIC, broth microdilution (Example 2, Table 6). Type of test: cell-based, Staphylococcus aureus.
For test [16], the system named is MSSA clinical isolate No. 2. Nature of the test: MIC, broth microdilution (Example 2, Table 6). Type of test: cell-based, Staphylococcus aureus.
The subject of test [17] is MRSA clinical isolate No. 9. Nature of the test: MIC, broth microdilution (Example 2, Table 6). Type of test: cell-based, Staphylococcus aureus.
Another test relates to MSSA ATCC29213. Kind of test: MIC, broth microdilution (Example 2, Table 6). Type of test: cell-based, Staphylococcus aureus.
The subject of test [18] is MRSA clinical isolate No. 10. Kind of test: MIC, broth microdilution (Example 2, Table 6). Type of test: cell-based, Staphylococcus aureus.

2 compounds from patent publication US9801850B2, “Antibacterial agent” (OSAKA UNIVERSITY, priority 2009, dated 2017) can be followed below.

≈ marks a conversion by molar mass, not a printed value. A value given as a limit tells only on which side of the number the result lay.

Regarding `O=C(O[C@@H]1Cc2c(O)cc(O)cc2O[C@@H]1c1cc(O)c(O)c(O)c1)c1cc(O)c(O)c(O)c1` [EGCG, Epigallocatechin gallate, reference compound], the MIC was found to be 128 µg/mL (≈ 279 µM) in [1]; 64 µg/mL (≈ 140 µM) in test [2]; 256 µg/mL (≈ 558 µM) in test [3]; 128 µg/mL (≈ 279 µM) in [4]; 128 µg/mL (≈ 279 µM) in test [5]; 128 µg/mL (≈ 279 µM) in test [6]. The MIC in test [7] was determined as 32 µg/mL (≈ 69.8 µM); in the test on Neisseria meningitidis, 32 µg/mL (≈ 69.8 µM); in the test with Candida krusei ATCC6258, 64 µg/mL (≈ 140 µM); in test [8], 64 µg/mL (≈ 140 µM); with Aspergillus fumigatus, 64 µg/mL (≈ 140 µM); in test [9] it was 64 µg/mL (≈ 140 µM). For the same compound, the MIC in [10] was 64 µg/mL (≈ 140 µM); in test [11], 32 µg/mL (≈ 69.8 µM); in [12], 64 µg/mL (≈ 140 µM); in [13], 128 µg/mL (≈ 279 µM); in test [14] it was 128 µg/mL (≈ 279 µM); against MSSA ATCC12600, greater than 128 µg/mL. Further, the MIC (in test [15]; in test [16]; in test [17]; against MSSA ATCC29213; in [18]) was greater than 128 µg/mL in each case.

Take EGCG-palmitate [EGCG-C16]: the MIC in test [1] came to 16 µg/mL; in test [2], 32 µg/mL; in [3], 16 µg/mL; in [4], 64 µg/mL; in test [5], 32 µg/mL; in test [6], 64 µg/mL. Moreover, the MIC in test [7] stood at 16 µg/mL; with Neisseria meningitidis, 16 µg/mL; in the test with Candida krusei ATCC6258 it was 16 µg/mL; in test [8] it was 32 µg/mL; against Aspergillus fumigatus, 32 µg/mL; in test [9], 32 µg/mL. In addition, the MIC in [10] is 16 µg/mL; in test [11] it was 16 µg/mL; in test [12], 8 µg/mL; in test [13] it was 8 µg/mL; in [14] it was 16 µg/mL; with MSSA ATCC12600, 16 µg/mL. Besides, the MIC in [15] came to 16 µg/mL; in test [16], 16 µg/mL; in test [17] it was 32 µg/mL; against MSSA ATCC29213, 16 µg/mL; in test [18], 16 µg/mL.
